Converted amounts (≈) assume the structure as drawn.
details: buffer; pH 7.4; 200.0 µM

Structure (SMILES)	solubility kinetic [µg/mL]
CCOc1nc(-c2ccccc2)c2cc(Br)ccc2n1	< 0.4
COc1ccc(C2C(C(C)=O)=C(C)Nc3ncnn32)cc1[N+](=O)[O-] (stereo not given)	> 49.4
COc1cc(NC(=O)C(C)C)ccc1NC(=O)c1cc2ccccc2o1	0.7 (≈ 1.99 µM)
COc1ccc(OC)c(S(=O)(=O)NC2CCCCNC2=O)c1 (stereo not given)	> 49.3
O=S(=O)(Nc1ccc(Cl)c(Cl)c1)N1CCOCC1	> 46.7
O=C(Cc1ccc(Cl)cc1)Nc1cc(Cl)ccn1	3.5 (≈ 12.4 µM)
O=C(NCc1ccco1)c1ccc(Cl)nc1	> 35.5
O=C(COC(=O)CN1C(=O)NC2(CCCCC2)C1=O)Nc1cc(F)ccc1F	> 59.3
CC(C(=O)N(C)C)N1c2cccc3cccc(c23)S1(=O)=O (stereo not given)	19.9 (≈ 65.4 µM)
O=C(CNCc1ccccc1Cl)Nc1cc(S(=O)(=O)N2CCOCC2)ccc1Cl	14.5 (≈ 31.6 µM)
Cc1cc(C(=O)OCC(=O)Nc2ccccc2C#N)c(C)o1	8.9 (≈ 29.8 µM)
Cc1[nH]c2ccccc2c1SCC(=O)NC1CCCCC1	> 45.4
Cc1nc2nc(-c3cccs3)[nH]c2cc1Br	3.8 (≈ 12.9 µM)
CNc1ccc(S(=O)(=O)NC)cc1[N+](=O)[O-]	> 36.8
COC(=O)c1sccc1S(=O)(=O)Nc1ccc(Cl)cc1	13 (≈ 39.2 µM)
CC(=O)Nc1cccc(NC(=S)Nc2cccc(Cl)c2C)c1	44.9 (≈ 134 µM)
CC1CCCCN1C(=O)Cn1cnc2cc([N+](=O)[O-])ccc2c1=O (stereo not given)	> 49.6
Cc1ccc2c(c1)c1c(n2CC(O)CN2CCC(C)CC2)CCCC1 (stereo not given)	44.4 (≈ 130 µM)
COc1cc2c(cc1OC)C(c1cccc(F)c1)CC(=O)N2 (stereo not given)	> 45.2
CCOc1ccc(NC(=O)COC(=O)Cc2ccsc2)cc1	25.1 (≈ 78.6 µM)

Structure (SMILES)	solubility kinetic [µg/mL]
CC(C)CCN1CCN(Cc2ccc(C(F)(F)F)cc2)CC1CCO (stereo not given)	> 53.8
CC1CN(C(=S)Nc2ccc(F)cc2F)CC(C)O1 (stereo not given)	> 43
Cc1ccccc1NC(=O)CSC(=O)c1ccccc1	12.5 (≈ 43.8 µM)
Cn1c(C(O)c2ccc(Br)cc2)nc(Cl)c1Cl (stereo not given)	13.9 (≈ 41.4 µM)
O=C(O)C1CCCN1C(=O)OCC1c2ccccc2-c2ccccc21 (stereo not given)	> 50.6
CCOC(=O)N1CCN(C(=O)CNC(=O)c2ccccc2F)CC1	> 50.6
COc1ccc2[nH]c(C(=O)NCCCn3ccnc3)cc2c1	> 44.8
O=C(Nc1cccc(Cl)c1N1CCCC1)c1ccco1	1.2 (≈ 4.13 µM)
CCC(=O)OCC(=O)Nc1cc([N+](=O)[O-])ccc1OC	40.9 (≈ 145 µM)
COc1cccc(NC(=O)c2ccccc2C(F)(F)F)c1	> 44.3
O=C(/C=C/c1ccccc1[N+](=O)[O-])c1ccc(F)cc1	4.5 (≈ 16.6 µM)
c1ccc2c(c1)Cc1cc3ccccc3nc1-2	4.3 (≈ 19.8 µM)
O=C(Cc1cccc2ccccc12)Nc1cc(Cl)ccc1C(=O)O	> 51
Cc1ccc(/C(=N/Nc2ncnc3ccccc23)C(=O)O)cc1	> 45.9
COCCn1c(N2CCCC2)nc2c1c(=O)[nH]c(=O)n2C	> 44
CCOc1ccccc1N1CC(C(=O)N2CCOCC2)CC1=O (stereo not given)	44.6 (≈ 140 µM)
Cc1ccc(C)c(SCC(=O)NC2CCS(=O)(=O)C2)c1 (stereo not given)	> 47
CCN(C(=O)CSc1nccc(=O)[nH]1)C1CCCCC1	> 44.3
CCN(CC)C(=O)n1c(Cc2ccccc2)nc2ccccc21	> 46.1
CN(C)c1ccc(NC(=O)COC(=O)c2ccc3c(c2)OCO3)cc1	10.8 (≈ 31.5 µM)

Structure (SMILES)	solubility kinetic [µg/mL]
Cn1ccsc1=NC(=O)c1cccc(OC(F)F)c1	> 42.6
Clc1ccccc1CN1CCSCC1	1.6 (≈ 7.02 µM)
Cn1c(=O)n(C)c2cc(NC(=O)c3ccc(F)cc3)c(Br)cc21	8.2 (≈ 21.7 µM)
COc1cc(/C=C/C(=O)OCC(=O)NCCC2=CCCCC2)cc(OC)c1OC	33.3 (≈ 82.5 µM)
COc1ccc(S(=O)(=O)N2CCCN(C)CC2)cc1.Cl	> 48.1
O=C(O)CCN1CCc2ccccc2C1c1ccncc1 (stereo not given)	> 42.4
COC(=O)c1cc(S(=O)(=O)N2CCCC2=O)c(Cl)cc1Cl	> 52.8
CC(=O)c1cccc(NC(=O)COC(=O)CCC(=O)c2ccc(F)cc2)c1	53.9 (≈ 145 µM)
O=C(c1cnc2sccn2c1=O)N1CCN(c2ccccc2Cl)CC1	54.4 (≈ 145 µM)
CC(C)CCn1cnc2c(oc3nc4c(cc32)CCCC4)c1=O	43 (≈ 138 µM)
CCCC(=O)NC(c1ccc(C)cc1)c1ccc2cccnc2c1O (stereo not given)	1.2 (≈ 3.59 µM)
CCC(CC)C(=O)c1c[nH]c(C(=O)NCc2ccccc2OC)c1	0.8 (≈ 2.44 µM)
FC(F)(F)C1=Nc2cccc3cccc(c23)N1	13.5 (≈ 57.2 µM)
CC(=O)C(C)n1cnc2scc(-c3ccc(C)cc3)c2c1=O (stereo not given)	44.6 (≈ 143 µM)
COc1ccc(-c2cc(C(=O)Nc3cc(C)on3)no2)cc1OC	< 0.2
CN(c1ccccc1)S(=O)(=O)c1ccc(Cl)nc1	40.1 (≈ 142 µM)
O=C(c1ccc(F)cc1)N1CCCC(C(=O)N2CCCCC2)C1 (stereo not given)	> 47.8
Cn1cc(C=C2C(=O)OC3(CCCCC3)OC2=O)c2ccccc21	< 0.7
O=C(CNC(=O)c1ccco1)OCc1ccc(Br)cc1	40.5 (≈ 120 µM)
CS(=O)(=O)N1CCC(C(=O)Nc2ccc(Cl)cc2)CC1	13.4 (≈ 42.3 µM)

— PubChem BioAssay AID1996
